Laboratory results from patent US20180258459A1, “NITRATE BIOSENSOR” (priority 2015, published 2018).

Tested on: NarL associated promoter
Test: transfer of natural NarL with its associated promoter into B. subtilis
Type: cell-based
Settings: natural NarL protein with its associated promoter, previous attempts

Substance: NarL: response regulator (RR) protein NarL from E. coli (UniProt P0AF28)
- functional transcription in B. subtilis: failed to result in functional transcription
